For this data set the following is noted: Crystal; DTA.

Numbers after ± are expanded uncertainties.

Our source for the Normal melting temperature values is the NIST ThermoML archive (doi:10.1016/j.jct.2014.12.004).

Turning to `O=c1c2ccccc2nc2n1CCc1c-2[nH]c2ccccc12` [Rutecarpine], the Normal melting temperature was determined as 259.1 ± 0.4 °C. To `CN1c2ccccc2C(=O)N2CCc3c([nH]c4ccccc34)[C@H]21` [evodiamine] belongs 275.1 ± 0.4 °C.
